Assay results as given in patent US10495571B2 (priority 2014, dated 2019).

Details: CMD-3D layer without HSA, PBS buffer, drug cM1 0.00-50 μM, DMSO 0.5%, 5%
Excerpt: The functional layer AF1 of the second sample region REG2 was otherwise similar to the functional layer AF1 of the first sample region REG1, except that the functional layer AF1 of the first sample region REG1 comprised HSA. […] B0b denotes the input beam impinging on the second sample region REG2, and B1b denotes the reflected beam reflected from the second sample region REG2. ZV2 denotes the sample volume of the second sample region REG2.
Prior to the second test, the functional layer AF1 of the second sample region was formed by a method, which comprised: • attaching a layer of CMD-3D to the metal layer 120 of the sensor, • washing the layer of CMD-3D with an aqueous solution, which comprised 2M NaCl and 10 mM NaOH, • activating the layer of CMD-3D with an activation solution, which comprised EDC and NHS. • treating the layer of CMD-3D with an aqueous solution, which comprised MES (the bulk concentration of MES was 5 mM and pH 5.0), • deactivating the functional layer AF1 by exposing it to an aqueous solution, which comprised ethanolamine (pH 8.0). • washing the functional layer AF1 with an aqueous solution, which comprised 50 mM NaOH. […]
The curve ϕAUX,CH2(t) may be calculated e.g. by using a modified equation (7h), where the parameter C may be determined by using a modified equation (7d), and the parameter D may be determined by using a modified equation (7i). […]

In the case of indomethacine, the “average value of the auxiliary angle ϕAUX,CH2(t) of the second sample region (reference, no HSA)” value is reported as “substantially independent of the bulk concentration cM1”.
